This is an account of results in publication PMC11273618, “Multianalytical Approach to Understand Polyphenol-Mal d 1 Interactions to Predict Their Impact on the Allergenic Potential of Apples” (Journal of Agricultural and Food Chemistry, 2024).

Usually KD stands for a measure of binding affinity in units of concentration.

The target in assay [1] is T1, r-Mal d 1.01 (recombinant Mal d 1.0108) (Malus domestica, UniProt Q9SYW3).
T1 construct: gene MALD1; 15N-labelled in M9 medium for HSQC NMR; one cysteine (Cys107)
T1 sequence (Q9SYW3 1-159): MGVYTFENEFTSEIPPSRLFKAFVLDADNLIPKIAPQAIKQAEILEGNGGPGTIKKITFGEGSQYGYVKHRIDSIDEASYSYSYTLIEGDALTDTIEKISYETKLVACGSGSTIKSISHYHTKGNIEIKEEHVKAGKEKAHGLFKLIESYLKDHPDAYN
The assay is described as follows: untargeted bottom-up LC-MS of tryptic peptides. Conditions: covalent; Michael addition at Cys107 (peptide LVACGSGSTIK) via o-quinone formed by autoxidation; excess ligand in water, 20 min, room temperature. The format is binding.

Assay [2] addresses T1, r-Mal d 1.01 (recombinant Mal d 1.0108). The experiment in a line: isothermal titration calorimetry, independent model. Conditions: 0.1 M sodium phosphate pH 7, 25 °C; 0.2 mM protein, 4 mM ligand injected; stoichiometry fixed at n = 1; weak nonspecific surface binding; unreliable. Background: In ITC the heat of successive injections is recorded.
Assay [3] shares this target. The experiment in a line: 1H-15N-HSQC NMR chemical shift perturbation. The format is binding. Conditions: 50 mM phosphate pH 7, 10% D2O, 25 °C; 100 μM 15N-protein, 0.1-2 mM ligand; no specific site, scattered over surface.

On to `Oc1cc(O)c2c(c1)O[C@H](c1ccc(O)c(O)c1)[C@H](O)C2` [EC, (−)-epicatechin], for which, in assay [1], the “% modification of Cys107 peptide” value is ~ 30%. The dissociation constant (KD) in assay [2] came to 1400 µM.

On to `Oc1cc(O)c2c(c1)O[C@H](c1ccc(O)c(O)c1)[C@H](O)[C@H]2c1c(O)cc(O)c2c1O[C@H](c1ccc(O)c(O)c1)[C@H](O)C2` [PC B2, procyanidin B2], for which, in assay [2], the KD stood at 600 ± 0 µM.

Take `O=C(/C=C/c1ccc(O)c(O)c1)O[C@@H]1C[C@](O)(C(=O)O)C[C@@H](O)[C@H]1O` [CA, chlorogenic acid]: the “1H-15N-HSQC NMR chemical shift perturbation” value in assay [3] is reported as “CA showed by far the strongest impact on the protein surface”.

For the compound `Oc1cc(O)c2c(c1)O[C@H](c1ccc(O)c(O)c1)[C@H](O)[C@H]2c1c(O)cc(O)c2c1O[C@H](c1ccc(O)c(O)c1)[C@@H](O)C2` [PC B1, procyanidin B1], the equilibrium dissociation constant (KD) in assay [2] was 1200 ± 200 µM.

In the case of `Oc1cc(O)c2c(c1)O[C@H](c1ccc(O)c(O)c1)[C@@H](O)C2` [CAT, (+)-catechin], the KD in assay [2] is 500 ± 0 µM.
